Measured values as given in PubChem BioAssay AID1963423 (Molecular Pharmacology Branch, DTP, NCI, 2024).
“And” between values parts separate entries of the source, which are not always exact repeats. Identical values can stand only once. Each block holds one compound with its values, some of them ahead of it.

Tested on: 439559-082-T-J2-PDC complex spheroid growth
Test: Anticancer human tumor 439559-082-T-J2-PDC patient-derived colon adenocarcinoma cell line growth inhibition [Asc]
Details: for viability, T/C: stronger effect = lower value
Procedure, shortened: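 Complex spheroids combining tumor cells with HUVEC endothelial cells and human MSCs, at 37 degrees C, 5% CO2; agents tested alone or combined, half-log dilutions from at or near clinical Cmax, or 10 microM if Cmax unknown.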

[1] = curve of first compound, second compound 0.1 µM
[2] = curve of first compound, second compound 0.316 µM
[3] = curve of first compound, second compound 1 µM
[4] = second compound 0.1 µM, first compound 0.00316 µM
[5] = second compound 0.1 µM, first compound 0.01 µM
[6] = second compound 0.1 µM, first compound 0.0316 µM
[7] = second compound 0.1 µM, first compound 0.1 µM
[8] = second compound 0.1 µM, first compound 0.316 µM
[9] = second compound 0.1 µM, first compound 1 µM
[10] = second compound 0.316 µM, first compound 0.00316 µM
[11] = second compound 0.316 µM, first compound 0.01 µM
[12] = second compound 0.316 µM, first compound 0.0316 µM
[13] = second compound 0.316 µM, first compound 0.1 µM
[14] = second compound 0.316 µM, first compound 0.316 µM
[15] = second compound 0.316 µM, first compound 1 µM
[16] = second compound 1 µM, first compound 0.00316 µM
[17] = second compound 1 µM, first compound 0.01 µM
[18] = second compound 1 µM, first compound 0.0316 µM
[19] = second compound 1 µM, first compound 0.1 µM
[20] = second compound 1 µM, first compound 0.316 µM
[21] = second compound 1 µM, first compound 1 µM
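Further: spheroids exposed to agents for 7 days starting day 3 after seeding.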
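Wherever viability, T/C is given: percent of DMSO vehicle control viability with 100% = vehicle.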

IC50 [1]: > 1000 nM
IC50 [2]: > 1000 nM
IC50 [3]: > 1000 nM
IC50 (curve of first compound, second compound 3.16 µM): > 1000 nM
IC50 (curve of first compound, second compound 10 µM): > 1000 nM
SMILES: CCN1CCN(Cc2ccc(Nc3ncc(F)c(-c4cc(F)c5nc(C)n(C(C)C)c5c4)n3)nc2)CC1 + Cc1c(S(C)(=O)=O)c(-c2cc(F)cc(N3CCN(c4ccc(NS(=O)(=O)c5ccc(NC(CCN6CCC(C(=O)OCCCP(=O)(O)O)CC6)CSc6ccccc6)c(S(=O)(=O)C(F)(F)F)c5)cc4)CC3)c2)c(-c2ccc(Cl)cc2)n1C(C)C
viability, T/C [4]: 93.5%
viability, T/C [5]: 107%
viability, T/C [6]: 94.2%
viability, T/C [7]: 85.3%
viability, T/C [8]: 92.8%
viability, T/C [9]: 80.5%
viability, T/C [10]: 101%
viability, T/C [11]: 102%
viability, T/C [12]: 103%
viability, T/C [13]: 78.5%
viability, T/C [14]: 84.2%
viability, T/C [15]: 73.4%
viability, T/C [16]: 96.5%
viability, T/C [17]: 93.5%
viability, T/C [18]: 94.3%
viability, T/C [19]: 80.5%
viability, T/C [20]: 80%
viability, T/C [21]: 70%
viability, T/C (second compound 3.16 µM, first compound 0.00316 µM): 85.1%
viability, T/C (second compound 3.16 µM, first compound 0.01 µM): 92.5%
viability, T/C (second compound 3.16 µM, first compound 0.0316 µM): 98.9%
viability, T/C (second compound 3.16 µM, first compound 0.1 µM): 72.4%
viability, T/C (second compound 3.16 µM, first compound 0.316 µM): 69.4%
viability, T/C (second compound 3.16 µM, first compound 1 µM): 68.6%
viability, T/C (second compound 10 µM, first compound 0.00316 µM): 82.4%
viability, T/C (second compound 10 µM, first compound 0.01 µM): 81.7%
viability, T/C (second compound 10 µM, first compound 0.0316 µM): 83.2%
viability, T/C (second compound 10 µM, first compound 0.1 µM): 63.5%
viability, T/C (second compound 10 µM, first compound 0.316 µM): 61.2%
viability, T/C (second compound 10 µM, first compound 1 µM): 50.1%

IC50 (curve of first compound, second compound 0.03 µM): 223 nM
IC50 (curve of first compound, second compound 0.0949 µM): 233 nM
IC50 (curve of first compound, second compound 0.3 µM): 235 nM
IC50 (curve of first compound, second compound 0.949 µM): 172 nM
IC50 (curve of first compound, second compound 3 µM): 97.6 nM
SMILES: O=C(c1ccc(F)c(F)c1Nc1ccc(I)cc1F)N1CC(O)([C@@H]2CCCCN2)C1 + CCN1C(C(=O)NC23CCC(C(=O)O)(CC2)CC3)C(c2cccc(Cl)c2F)C2(C(=O)Nc3cc(Cl)ccc32)C12CCCCC2
viability, T/C (second compound 0.03 µM, first compound 0.00316 µM): 103%
viability, T/C (second compound 0.03 µM, first compound 0.01 µM): 101%
viability, T/C (second compound 0.03 µM, first compound 0.0316 µM): 83.8%
viability, T/C (second compound 0.03 µM, first compound 0.1 µM): 61.6%
viability, T/C (second compound 0.03 µM, first compound 0.316 µM): 46.9%
viability, T/C (second compound 0.03 µM, first compound 1 µM): 22.5%
viability, T/C (second compound 0.0949 µM, first compound 0.00316 µM): 111%
viability, T/C (second compound 0.0949 µM, first compound 0.01 µM): 106%
viability, T/C (second compound 0.0949 µM, first compound 0.0316 µM): 84.8%
viability, T/C (second compound 0.0949 µM, first compound 0.1 µM): 58.2%
viability, T/C (second compound 0.0949 µM, first compound 0.316 µM): 52.6%
viability, T/C (second compound 0.0949 µM, first compound 1 µM): 16.3%
viability, T/C (second compound 0.3 µM, first compound 0.00316 µM): 98.7%
viability, T/C (second compound 0.3 µM, first compound 0.01 µM): 110%
viability, T/C (second compound 0.3 µM, first compound 0.0316 µM): 91.7%
viability, T/C (second compound 0.3 µM, first compound 0.1 µM): 64.3%
viability, T/C (second compound 0.3 µM, first compound 0.316 µM): 47.2%
viability, T/C (second compound 0.3 µM, first compound 1 µM): 8.43%
viability, T/C (second compound 0.949 µM, first compound 0.00316 µM): 111%
viability, T/C (second compound 0.949 µM, first compound 0.01 µM): 93.5%
viability, T/C (second compound 0.949 µM, first compound 0.0316 µM): 88.4%
viability, T/C (second compound 0.949 µM, first compound 0.1 µM): 54.5%
viability, T/C (second compound 0.949 µM, first compound 0.316 µM): 41.1%
viability, T/C (second compound 0.949 µM, first compound 1 µM): 16.2%
viability, T/C (second compound 3 µM, first compound 0.00316 µM): 96.8%
viability, T/C (second compound 3 µM, first compound 0.01 µM): 81.7%
viability, T/C (second compound 3 µM, first compound 0.0316 µM): 78.1%
viability, T/C (second compound 3 µM, first compound 0.1 µM): 47%
viability, T/C (second compound 3 µM, first compound 0.316 µM): 27%
viability, T/C (second compound 3 µM, first compound 1 µM): 12.2%

IC50 (curve of compound): > 100 nM
SMILES: Cn1ncnc1[C@H]1c2n[nH]c(=O)c3cc(F)cc(c23)N[C@@H]1c1ccc(F)cc1
viability, T/C (compound 0.000316 µM): 104% and 97.5% and 103%
viability, T/C (compound 0.001 µM): 108% and 97.8% and 112%
viability, T/C (compound 0.00316 µM): 97.6% and 103% and 92%
viability, T/C (compound 0.01 µM): 95.5% and 95.2% and 97.6%
viability, T/C (compound 0.0316 µM): 102% and 105% and 107%
viability, T/C (compound 0.1 µM): 98.1% and 92.3% and 98.5%

IC50 (curve of first compound, second compound 0.00316 µM): > 1000 nM
IC50 (curve of first compound, second compound 0.01 µM): > 1000 nM
IC50 (curve of first compound, second compound 0.0316 µM): > 1000 nM
IC50 [1]: > 1000 nM
IC50 [2]: > 1000 nM
IC50 [3]: > 1000 nM
SMILES: CCN1CCN(Cc2ccc(Nc3ncc(F)c(-c4cc(F)c5nc(C)n(C(C)C)c5c4)n3)nc2)CC1 + CNC(C)C(=O)NC1CN(S(=O)(=O)c2cccc(S(=O)(=O)N3CCC4CCC(C(=O)NC(c5ccccc5)c5ccccc5)N4C(=O)C(NC(=O)C(C)NC)C3)c2)CCC2CCC(C(=O)NC(c3ccccc3)c3ccccc3)N2C1=O
viability, T/C (second compound 0.00316 µM, first compound 0.00316 µM): 99.5%
viability, T/C (second compound 0.00316 µM, first compound 0.01 µM): 92.6%
viability, T/C (second compound 0.00316 µM, first compound 0.0316 µM): 91%
viability, T/C (second compound 0.00316 µM, first compound 0.1 µM): 94.1%
viability, T/C (second compound 0.00316 µM, first compound 0.316 µM): 85.8%
viability, T/C (second compound 0.00316 µM, first compound 1 µM): 66.9%
viability, T/C (second compound 0.01 µM, first compound 0.00316 µM): 107%
viability, T/C (second compound 0.01 µM, first compound 0.01 µM): 101%
viability, T/C (second compound 0.01 µM, first compound 0.0316 µM): 87.3%
viability, T/C (second compound 0.01 µM, first compound 0.1 µM): 95.4%
viability, T/C (second compound 0.01 µM, first compound 0.316 µM): 88%
viability, T/C (second compound 0.01 µM, first compound 1 µM): 73.1%
viability, T/C (second compound 0.0316 µM, first compound 0.00316 µM): 95.8%
viability, T/C (second compound 0.0316 µM, first compound 0.01 µM): 111%
viability, T/C (second compound 0.0316 µM, first compound 0.0316 µM): 89.6%
viability, T/C (second compound 0.0316 µM, first compound 0.1 µM): 96.8%
viability, T/C (second compound 0.0316 µM, first compound 0.316 µM): 94.5%
viability, T/C (second compound 0.0316 µM, first compound 1 µM): 78.5%
viability, T/C [4]: 103%
viability, T/C [5]: 87.9%
viability, T/C [6]: 99%
viability, T/C [7]: 94.6%
viability, T/C [8]: 95.5%
viability, T/C [9]: 64.2%
viability, T/C [10]: 91.6%
viability, T/C [11]: 84.2%
viability, T/C [12]: 86.8%
viability, T/C [13]: 75.5%
viability, T/C [14]: 82%
viability, T/C [15]: 65.5%
viability, T/C [16]: 88.9%
viability, T/C [17]: 77.3%
viability, T/C [18]: 69.4%
viability, T/C [19]: 69.2%
viability, T/C [20]: 62.1%
viability, T/C [21]: 48.9%
